Format in all cases: cell-based
The subject of assay [1] is broad panel of different clinical isolates. The assay can be described thus: microbe, parasite or virus in culture. The procedure: (§1) Minimum inhibitory concentrations (MICs) were determined by broth microdilution method or agar dilution method following the Clinical and Laboratory Standards Institute guidelines. Standard bacterial strains were obtained from American Type Culture Collection (ATCC). Other bacterial strains were obtained from hospitals and commercial sources, so noted in Table 11. […] Specialized procedures were employed for streptococcal and anaerobic strains. All other bacterial strains were sub-cultured on blood agar plates (tryptic soy agar with 5% sheep blood, Hardy Diagnostics) and incubated overnight at 35° C. […] Suspensions were further diluted to obtain a final inoculum of 5×10^5 CFU/mL for broth microdilution experiments.

The next assay concerns E. coli ΔTolC. The assay can be described thus: microbe, parasite or virus in culture. On the procedure:
as §1

The subject of the next assay is S. aureus MMX 3035 cErmA. The assay can be described thus: MIC (broth microdilution or agar dilution, CLSI). To be noted: Staphylococcus aureus, MMX3035CERMA; S. aureus HAV#031, MMX 3035; cErmA; read-out: MIC. On the procedure:
as §1
(In broth dilution the organism is exposed to a series of concentrations in liquid medium.)

The subject of the next assay is S. aureus ATCC 29213. The experiment in a line: MIC (broth microdilution or agar dilution, CLSI). On the procedure: as §1
Another assay concerns S. pneumoniae ATCC 49619. The assay can be described thus: MIC (broth microdilution or agar dilution, CLSI). The procedure: as §1
A further assay deals with K. oxytoca Clinical. The experiment in a line: MIC (broth microdilution or agar dilution, CLSI). The procedure: as §1
The subject of another assay is S. pyogenes ATCC 19615. The experiment in a line: MIC (broth microdilution or agar dilution, CLSI). The procedure:
as §1

Another assay concerns E. coli LptD. The assay can be described thus: MIC (broth microdilution or agar dilution, CLSI). On the procedure:
as §1

The subject of the next assay is E. coli ATCC 25922. The assay can be described thus: MIC (broth microdilution or agar dilution, CLSI). The procedure:
as §1

The next assay concerns E. faecalis ATCC 29212. The assay can be described thus: MIC (broth microdilution or agar dilution, CLSI). The procedure:
as §1

The subject of the next assay is S. aureus cErmA. The experiment in a line: MIC (broth microdilution or agar dilution, CLSI). Conditions: S. aureus cErmA. On the procedure:
(§2) Minimum inhibitory concentrations (MICs) were determined by broth microdilution method or agar dilution method following the Clinical and Laboratory Standards Institute guidelines. Standard bacterial strains were obtained from American Type Culture Collection (ATCC). Other bacterial strains were obtained from hospitals and commercial sources, so noted in Table 11. Before the start of the MIC experiment, standard and test compound stock solutions were prepared in dimethyl sulfoxide (DMSO, Aldrich D2650) at a stock concentration of 5,120 μg/mL. The compound concentration range typically employed for each experiment was 128-0.06 μg/mL (2.5% final DMSO concentration). Clindamycin was used as a comparator in all experiments and each experiment was performed in triplicate. Specialized procedures were employed for streptococcal and anaerobic strains. All other bacterial strains were sub-cultured on blood agar plates (tryptic soy agar with 5% sheep blood, Hardy Diagnostics) and incubated overnight at 35° C. Organisms were suspended in cation-adjusted Mueller-Hinton broth (CaMHB, BD 212322) and optical density was adjusted to 0.5 McFarland standard. Suspensions were further diluted to obtain a final inoculum of 5×10^5 CFU/mL for broth microdilution experiments.

Another assay relates to E. faecium Clinical VRE. The assay can be described thus: MIC (broth microdilution or agar dilution, CLSI). Conditions: E. faecium Clinical VRE. On the procedure: as §2
The subject of a further assay is P. aeruginosa ATCC 27853. The experiment in a line: MIC (broth microdilution or agar dilution, CLSI). To be noted: P. aeruginosa ATCC 27853. The procedure: as §2
Another assay relates to A. baumannii ATCC 19606. The assay can be described thus: MIC (broth microdilution or agar dilution, CLSI). Conditions: A. baumannii ATCC 19606. The procedure:
as §1

[2] abbreviates: Escherichia coli, E. coli ΔTolC.
Setting [3] is: Staphylococcus aureus, read-out: MIC.
[4] abbreviates: Enterococcus faecium, read-out: MIC.
Setting [5] is: Pseudomonas aeruginosa, ATCC27853, read-out: MIC.
Setting [6] is: Staphylococcus aureus, ATCC29213, S. aureus ATCC 29213, read-out: MIC.
The mark [7] stands for this setting: Streptococcus pneumoniae, ATCC49619, S. pneumoniae ATCC 49619, read-out: MIC.
Where [8] appears, read: Klebsiella oxytoca, K. oxytoca Clinical, read-out: MIC.
Where [9] appears, read: Streptococcus pyogenes, ATCC19615, S. pyogenes ATCC 19615, read-out: MIC.
[10] abbreviates: Acinetobacter baumannii, ATCC19606, read-out: MIC.
Where [11] appears, read: Escherichia coli, E. coli LptD, read-out: MIC.
[12] abbreviates: Escherichia coli, ATCC25922, E. coli ATCC 25922, read-out: MIC.
Setting [13] is: Enterococcus faecalis, ATCC29212, E. faecalis ATCC 29212, read-out: MIC.

≈ marks a conversion by molar mass, not a printed value. Like-named read-outs stand apart in the source and are kept apart here.

Regarding `O=C(N[C@H](CO)[C@H](O)c1ccc([N+](=O)[O-])cc1)C(Cl)Cl` [Chloramphenicol], the MIC in assay [1] (Enterococcus faecalis, VRE, E. faecalis HAV#251, Clinical VRE) is 4 µg/mL (≈ 12.4 µM); in [1] (Enterococcus faecium, VRE, E. faecium HAV#318, VanA) it was 8 µg/mL (≈ 24.8 µM); in assay [1] (Klebsiella pneumoniae, K. pneumoniae HAV#041, Clinical, KPC) it was over 128 µg/mL; in assay [1] (Staphylococcus aureus, S. aureus HAV#216, Clinical, cfr), over 128 µg/mL; in assay [1] (Staphylococcus aureus, S. aureus HAV#217, cfr), over 128 µg/mL; in assay [1] (Staphylococcus epidermidis, S. epidermidis HAV# 275 Clinical, cfr), over 128 µg/mL. Moreover, the MIC in assay [1] (Staphylococcus epidermidis, S. epidermidis HAV# 276, cfr) is over 128 µg/mL; in the assay with E. coli ΔTolC (Escherichia coli, E. coli HAV#038, ΔTolC) it was 8 µg/mL (≈ 24.8 µM); in the assay on S. aureus MMX 3035 cErmA it was 16 µg/mL (≈ 49.5 µM); with S. aureus ATCC 29213 (Staphylococcus aureus, ATCC29213, S. aureus HAV#001, ATCC 29213, MP-549, read-out: MIC), 8 µg/mL (≈ 24.8 µM); in the assay on S. pneumoniae ATCC 49619 (Streptococcus pneumoniae, ATCC49619, S. pneumoniae HAV#003, ATCC 49619, read-out: MIC), 4 µg/mL (≈ 12.4 µM); in the assay on K. oxytoca Clinical (Klebsiella oxytoca, K. oxytoca HAV#450, Clinical, read-out: MIC) it was 8 µg/mL (≈ 24.8 µM). Further, the MIC in the assay with S. pyogenes ATCC 19615 (Streptococcus pyogenes, ATCC19615, S. pyogenes HAV#004, ATCC 19615, read-out: MIC) is 4 µg/mL (≈ 12.4 µM); with E. coli LptD (Escherichia coli, E. coli HAV#040, LptD, read-out: MIC), 4 µg/mL (≈ 12.4 µM); in the assay on E. coli ATCC 25922 (Escherichia coli, ATCC25922, E. coli HAV#006, ATCC 25922, read-out: MIC), 8 µg/mL (≈ 24.8 µM); with E. faecalis ATCC 29212 (Enterococcus faecalis, ATCC29212, E. faecalis HAV#005, ATCC 29212, read-out: MIC), 8 µg/mL (≈ 24.8 µM).

Consider `CSC1O[C@H]([C@H](NC(=O)[C@H]2NC[C@@H]3C[C@H](CC(F)F)CCO[C@H]32)[C@H](C)Cl)C(O)[C@@H](O)[C@H]1O` (stereo partly shown) [FSA-10-09-093], for which the MIC against E. coli ΔTolC (E. coli ΔTolC) is 1 µg/mL (≈ 1.99 µM); in the assay with S. aureus cErmA, 32 µg/mL (≈ 63.6 µM); with E. faecium Clinical VRE, 8 µg/mL (≈ 15.9 µM); in the assay on P. aeruginosa ATCC 27853 it was over 128 µg/mL; with S. aureus ATCC 29213 (S. aureus ATCC 29213) it was 0.25 µg/mL (≈ 0.497 µM); against S. pneumoniae ATCC 49619 (S. pneumoniae ATCC 49619) it was 0.5 µg/mL (≈ 0.994 µM). Also, the MIC against K. oxytoca Clinical (K. oxytoca Clinical) was found to be 16 µg/mL (≈ 31.8 µM); against S. pyogenes ATCC 19615 (S. pyogenes ATCC 19615) it was 0.5 µg/mL (≈ 0.994 µM); against A. baumannii ATCC 19606 it was 128 µg/mL (≈ 254 µM); in the assay with E. coli LptD (E. coli LptD) it was 4 µg/mL (≈ 7.95 µM); in the assay with E. coli ATCC 25922 (E. coli ATCC 25922) it was 16 µg/mL (≈ 31.8 µM); in the assay on E. faecalis ATCC 29212 (E. faecalis ATCC 29212), 0.25 µg/mL (≈ 0.497 µM).

Turning to `CSC1O[C@H]([C@H](NC(=O)[C@H]2NC[C@@H]3C[C@H](CCF)CCO[C@H]32)[C@H](C)Cl)C(O)[C@@H](O)[C@H]1O` (stereo partly shown) [FSA-10-09-099], the MIC is 1 µg/mL (≈ 2.06 µM) in the assay on E. coli ΔTolC (setting [2]); 32 µg/mL (≈ 66 µM) in the assay on S. aureus cErmA (setting [3]); 16 µg/mL (≈ 33 µM) with E. faecium Clinical VRE (setting [4]); over 128 µg/mL in the assay on P. aeruginosa ATCC 27853 (setting [5]); 0.25 µg/mL (≈ 0.515 µM) with S. aureus ATCC 29213 (setting [6]); 0.25 µg/mL (≈ 0.515 µM) in the assay with S. pneumoniae ATCC 49619 (setting [7]). For the same compound, the MIC with K. oxytoca Clinical (setting [8]) was 32 µg/mL (≈ 66 µM); with S. pyogenes ATCC 19615 (setting [9]), 0.5 µg/mL (≈ 1.03 µM); in the assay on A. baumannii ATCC 19606 (setting [10]), over 128 µg/mL; with E. coli LptD (setting [11]), 4 µg/mL (≈ 8.25 µM); in the assay with E. coli ATCC 25922 (setting [12]), 32 µg/mL (≈ 66 µM); in the assay with E. faecalis ATCC 29212 (setting [13]), 0.5 µg/mL (≈ 1.03 µM).

On to `CSC1O[C@H]([C@H](NC(=O)[C@H]2NC[C@@H]3C[C@H](CC4CC4)CCO[C@H]32)[C@H](C)Cl)C(O)[C@@H](O)[C@H]1O` (stereo partly shown) [FSA-10-10-001], for which the MIC is 0.25 µg/mL (≈ 0.507 µM) in the assay with E. coli ΔTolC (setting [2]); 4 µg/mL (≈ 8.11 µM) in the assay with S. aureus cErmA (setting [3]); 2 µg/mL (≈ 4.06 µM) in the assay with E. faecium Clinical VRE (setting [4]); over 128 µg/mL in the assay with P. aeruginosa ATCC 27853 (setting [5]); 0.125 µg/mL (≈ 0.254 µM) in the assay on S. aureus ATCC 29213 (setting [6]); 0.125 µg/mL (≈ 0.254 µM) in the assay on S. pneumoniae ATCC 49619 (setting [7]). In addition, the MIC is 8 µg/mL (≈ 16.2 µM) with K. oxytoca Clinical (setting [8]); 0.125 µg/mL (≈ 0.254 µM) in the assay with S. pyogenes ATCC 19615 (setting [9]); 16 µg/mL (≈ 32.5 µM) with A. baumannii ATCC 19606 (setting [10]); 0.5 µg/mL (≈ 1.01 µM) in the assay on E. coli LptD (setting [11]); 4 µg/mL (≈ 8.11 µM) in the assay with E. coli ATCC 25922 (setting [12]); 0.06 µg/mL (≈ 0.122 µM) with E. faecalis ATCC 29212 (setting [13]).

For the origin of these results see US20230203081A1, “LINCOSAMIDE ANTIBIOTICS AND USES THEREOF” (President and Fellows of Harvard College, priority 2020, published 2023).
